We go through 31 compounds from patent US10196369B2, “Spirocyclic EBI2 modulators” (Sanford Burnham Prebys Medical Discovery Institute, priority 2013, dated 2019).

Where only a bound is given, the exact number is not on record here.

The target in the assay is EBI2 (Homo sapiens, UniProt P32249). Put plainly: Cell-based luminescent assay of EBI2 modulation (7a,25-OHC stimulated). The settings on record: 7a,25-OHC final assay concentration 80 nM, 60 minute incubation. On the procedure:
To assess EBI2 modulation, the compounds described herein were assayed in the following cell-based luminescent assay:
1) Plated 600 cells/well in 4 μL of assay media into columns 1-48 of a 1536-well assay plate, using a liquid dispenser.
2) Centrifuged plates at 1000 rpm for 1 minute and covered with lids.
3) Incubated overnight at 37° C., 100% relative humidity, 5% CO2.
1) Centrifuged compound plates containing compounds described herein at 500 rpm for 1 minute.
2) Added compounds into assay plate col 5-48 to final concentration 4-5 uM. Added matching amount of DMSO to positive and negative control wells in columns 1-4.
3) Dispensed 2 uL/well of assay media to columns 1-2 for the positive control wells.
4) Added 2 uL/well of 400 nM 7a,25-OHC (final assay concentration=80 nM) in assay media to columns 3-48 for the negative control and test compound wells.
5) Centrifuged plates at 1000 rpm for 1 minute and re-lid plates.
6) Incubated plates at 37° C., 100% relative humidity, 5% CO2 for 60 minutes.
7) Following 60 minute incubation, delivered 2.5 uL of Detection Reagent solution to each assay plate (Columns 1-48) using a liquid handler.
8) Centrifuged plates at 2000 rpm for 2 minutes and re-lid plates.
9) Incubated plates for 60 minutes at 25 degrees in the dark.
10) Read plates using the Viewlux, Envision or other suitable plate reader using a luminescence detection.
The experimental values were normalized by the difference between values from neutral and stimulator control wells in each plate. Then normalized data was corrected to remove systematic plate patterns due to artifacts such as dispensing tip issues etc.

Sequence of EBI2 (P32249 whole entry): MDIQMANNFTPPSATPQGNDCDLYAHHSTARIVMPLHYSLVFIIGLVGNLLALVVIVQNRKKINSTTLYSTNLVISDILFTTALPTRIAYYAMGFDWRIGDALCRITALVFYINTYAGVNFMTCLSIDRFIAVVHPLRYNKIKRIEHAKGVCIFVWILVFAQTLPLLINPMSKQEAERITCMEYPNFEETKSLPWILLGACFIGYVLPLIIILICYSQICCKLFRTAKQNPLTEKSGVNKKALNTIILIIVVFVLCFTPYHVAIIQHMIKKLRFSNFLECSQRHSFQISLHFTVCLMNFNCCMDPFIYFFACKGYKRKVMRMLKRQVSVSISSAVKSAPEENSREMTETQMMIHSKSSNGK

Broadly, the IC50 is the midpoint of a concentration-inhibition curve. For the compound `O=C(/C=C/c1ccc(Cl)c(Cl)c1)N1CC2(CCN(Cc3ccc(Cl)cc3)CC2)C1` [Compound C33, (2E)-3-(3,4-dichlorophenyl)-1-{7-[(4-chlorophenyl)methyl]-2,7-diazaspiro[3.5]non-2-yl}prop-2-en-1-one], the IC50 fell in the range of 0.1 to 0.5 µM. Compound `O=C(C#Cc1ccc(Br)cc1)N1CCC2(CC1)CN(C(=O)c1ccc(C(F)(F)F)cc1)C2` [Compound C71, 3-(4-bromophenyl)-1-(2-{[4-(trifluoromethyl)phenyl]carbonyl}-2,7-diazaspiro[3.5]non-7-yl)prop-2-yn-1-one] displayed a concentration for half-maximal inhibition (IC50) below 0.1 µM. Consider `O=C(/C=C/c1ccc(Br)cc1)N1CC2(CCN(Cc3ccc(F)c(C(F)(F)F)c3)CC2)C1` [Compound C27, (2E)-3-(4-bromophenyl)-1-(7-{[4-fluoro-3-(trifluoromethyl)phenyl]methyl}-2,7-diazaspiro[3.5]non-2-yl)prop-2-en-1-one], for which the IC50 is 0.1 to 0.5 µM. The figure for `O=C(c1ccc(C(F)(F)F)cc1)N1CCC2(CC1)CN(C(=O)c1cc3cc(Cl)ccc3[nH]1)C2` [Compound C39, 5-chloroindol-2-yl 7-{[4-(trifluoromethyl)phenyl]carbonyl}-2,7-diazaspiro[3.5]non-2-yl ketone] is below 0.1 µM; for `O=C(/C=C/c1ccc(Br)cc1)N1CCC2(CC1)CN(C(=O)c1ccc(C(F)(F)F)cc1)C2` [Compound C54, (2E)-3-(4-bromophenyl)-1-(2-{[4-(trifluoromethyl)phenyl]carbonyl}-2,7-diazaspiro[3.5]non-7-yl)prop-2-en-1-one] it is below 0.1 µM. In turn, `Nc1ccc(C(=O)N2CCC3(CC2)CN(C(=O)/C=C/c2ccc(Br)cc2)C3)cc1` [Compound C51, (2E)-1-{7-[(4-aminophenyl)carbonyl]-2,7-diazaspiro[3.5]non-2-yl}-3-(4-bromophenyl)prop-2-en-1-one] came in with a 50% inhibitory concentration (IC50) below 0.1 µM.

The compound `O=C(c1ccc(Cl)cc1)N1CCC2(CC1)CN(C(=O)c1cc3cc(Cl)ccc3[nH]1)C2` [Compound C40, 5-chloroindol-2-yl 7-[(4-chlorophenyl)carbonyl]-2,7-diazaspiro[3.5]non-2-yl ketone] registered an IC50 below 0.1 µM.

`O=C(c1cc2cc(Cl)ccc2[nH]1)N1CCC2(CC1)CN(Cc1ccc(C(F)(F)F)cc1)C2` [Compound C15, 5-chloroindol-2-yl 2-{[4-(trifluoromethyl)phenyl]methyl}-2,7-diazaspiro[3.5]non-7-yl ketone]: the IC50 lay in the range of 0.1 to 0.5 µM.

As for `Cc1cccc(C(=O)N2CC3(CCN(C(=O)/C=C/c4ccc(Br)cc4)CC3)C2)c1` [Compound C12, (2E)-3-(4-bromophenyl)-1-{2-[(3-methylphenyl)carbonyl]-2,7-diazaspiro[3.5]non-7-yl}prop-2-en-1-one], the IC50 was below 0.1 µM. Compound `O=C(/C=C/c1ccc(Br)cc1)N1CC2(CCN(C(=O)c3ccc(F)cc3)CC2)C1` [Compound C20, (2E)-3-(4-bromophenyl)-1-{7-[(4-fluorophenyl)carbonyl]-2,7-diazaspiro[3.5]non-2-yl}prop-2-en-1-one] displayed an IC50 below 0.1 µM. For `COc1cc(CN2CCC3(CC2)CN(C(=O)c2cc4cc(Br)ccc4[nH]2)C3)cc(OC)c1` [Compound C62, 7-[(3,5-dimethoxyphenyl)methyl]-2,7-diazaspiro[3.5]non-2-yl 5-bromoindol-2-yl ketone], the 50% inhibitory concentration (IC50) was 0.1 to 0.5 µM.

Compound `O=C(/C=C/c1ccc(Br)cc1)N1CCC2(CC1)CN(Cc1ccc(Cl)cc1)C2` [Compound C6, (2E)-3-(4-bromophenyl)-1-{2-[(4-chlorophenyl)methyl]-2,7-diazaspiro[3.5]non-7-yl}prop-2-en-1-one] had a concentration for half-maximal inhibition (IC50) below 0.1 µM. To `O=C(/C=C/c1ccc(Br)cc1)N1CC2(CCN(C(=O)c3cc(F)cc(F)c3)CC2)C1` [Compound C44, (2E)-1-{7-[(3,5-difluorophenyl)carbonyl]-2,7-diazaspiro[3.5]non-2-yl}-3-(4-bromophenyl)prop-2-en-1-one] belongs below 0.1 µM; to `O=C(/C=C/c1ccc(Br)cc1)N1CCC2(CC1)CN(C(=O)/C=C/c1ccc(Br)cc1)C2` [Compound C1, (2E)-1-{7-[(2E)-3-(4-bromophenyl)prop-2-enoyl]-2,7-diazaspiro[3.5]non-2-yl}-3-(4-bromophenyl)prop-2-en-1-one], below 0.1 µM. As to `O=C(C#Cc1ccc(Cl)cc1)N1CC2(CCN(C(=O)c3ccc(F)cc3)CC2)C1` [Compound C3, 3-(4-chlorophenyl)-1-{7-[(4-fluorophenyl)carbonyl]-2,7-diazaspiro[3.5]non-2-yl}prop-2-yn-1-one], the IC50 was 0.1 to 0.5 µM. To `O=C(c1cc2cc(Br)ccc2[nH]1)N1CC2(CCN(Cc3ccc(F)cc3C(F)(F)F)CC2)C1` [Compound C60, 5-bromoindol-2-yl 7-{[4-fluoro-2-(trifluoromethyl)phenyl]methyl}-2,7-diazaspiro[3.5]non-2-yl ketone] belongs 0.5 to 5 µM; to `O=C(/C=C/c1ccc(Br)cc1)N1CCC2(CC1)CN(C(=O)c1ccc(F)cc1)C2` [Compound C53, (2E)-3-(4-bromophenyl)-1-{2-[(4-fluorophenyl)carbonyl]-2,7-diazaspiro[3.5]non-7-yl}prop-2-en-1-one], below 0.1 µM; to `O=C(C#Cc1ccc(Br)cc1)N1CCC2(CC1)CN(Cc1ccc(C(F)(F)F)cc1)C2` [Compound C73, 3-(4-bromophenyl)-1-(2-{[4-(trifluoromethyl)phenyl]methyl}-2,7-diazaspiro[3.5]non-7-yl)prop-2-yn-1-one], below 0.1 µM. For the compound `O=C(C#Cc1ccc(F)cc1)N1CC2(CCN(C(=O)c3ccc(Cl)cc3)CC2)C1` [Compound C94, 1-{7-[(4-chlorophenyl)carbonyl]-2,7-diazaspiro[3.5]non-2-yl}-3-(4-fluorophenyl)prop-2-yn-1-one], the IC50 lay in the range of 0.1 to 0.5 µM.

With `O=C(/C=C/c1ccc(Br)cc1)N1CC2(CCN(C(=O)c3ccc(F)c(C(F)(F)F)c3)CC2)C1` [Compound C22, (2E)-3-(4-bromophenyl)-1-(7-{[4-fluoro-3-(trifluoromethyl)phenyl]carbonyl}-2,7-diazaspiro[3.5]non-2-yl)prop-2-en-1-one], the half-inhibitory concentration (IC50) is below 0.1 µM.

For the compound `O=C(c1ccc(Br)cc1)N1CCC2(CC1)CN(C(=O)c1cc3cc(Br)ccc3[nH]1)C2` [Compound C46, 5-bromoindol-2-yl 7-[(4-bromophenyl)carbonyl]-2,7-diazaspiro[3.5]non-2-yl ketone], the IC50 is below 0.1 µM. On to `O=C(C#Cc1ccc(F)cc1)N1CC2(CCN(C(=O)c3ccc(Br)cc3)CC2)C1` [Compound C95, 1-{7-[(4-bromophenyl)carbonyl]-2,7-diazaspiro[3.5]non-2-yl}-3-(4-fluorophenyl)prop-2-yn-1-one], for which the 50% inhibitory concentration (IC50) was below 0.1 µM. `O=C(/C=C/c1ccc(Br)cc1)N1CCC2(CC1)CN(Cc1ccc(F)cc1)C2` [Compound C8, (2E)-3-(4-bromophenyl)-1-{2-[(4-fluorophenyl)methyl]-2,7-diazaspiro[3.5]non-7-yl}prop-2-en-1-one] yielded an IC50 below 0.1 µM. The figure for `O=C(c1cc2cc(Br)ccc2[nH]1)N1CC2(CCN(C(=O)c3ccc(F)cc3C(F)(F)F)CC2)C1` [Compound C48, 5-bromoindol-2-yl 7-{[4-fluoro-2-(trifluoromethyl)phenyl]carbonyl}-2,7-diazaspiro[3.5]non-2-yl ketone] is below 0.1 µM; for `O=C(/C=C/c1ccc(Br)cc1)N1CCC2(CC1)CN(Cc1c(Cl)cccc1Cl)C2` [Compound C11, (2E)-1-{2-[(2,6-dichlorophenyl)methyl]-2,7-diazaspiro[3.5]non-7-yl}-3-(4-bromophenyl)prop-2-en-1-one] it is below 0.1 µM. The figure for `O=C(c1ccc(C(F)(F)F)c(F)c1)N1CCC2(CC1)CN(C(=O)c1cc3cc(Cl)ccc3[nH]1)C2` [Compound C18, 5-chloroindol-2-yl 7-{[3-fluoro-4-(trifluoromethyl)phenyl]carbonyl}-2,7-diazaspiro[3.5]non-2-yl ketone] is below 0.1 µM; for `COc1ccc(C(=O)N2CC3(CCN(C(=O)C#Cc4ccc(Br)cc4)CC3)C2)cc1` [Compound C74, 3-(4-bromophenyl)-1-{2-[(4-methoxyphenyl)carbonyl]-2,7-diazaspiro[3.5]non-7-yl}prop-2-yn-1-one] it is below 0.1 µM.

In the case of `O=C(c1cc2cc(Cl)ccc2[nH]1)N1CCC2(CC1)CN(Cc1cccc(F)c1)C2` [Compound C4, 5-chloroindol-2-yl 2-[(3-fluorophenyl)methyl]-2,7-diazaspiro[3.5]non-7-yl ketone], the half-maximal inhibitory concentration (IC50) was below 0.1 µM. Turning to `O=C(c1ccc(F)cc1)N1CC2(CCN(C(=O)c3cc4cc(Cl)ccc4[nH]3)CC2)C1` [Compound C5, 5-chloroindol-2-yl 2-[(4-fluorophenyl)carbonyl]-2,7-diazaspiro[3.5]non-7-yl ketone], the concentration for half-maximal inhibition (IC50) is below 0.1 µM. As for `O=C(c1ccc(F)cc1)N1CCC2(CC1)CN(C(=O)c1cc3cc(Cl)ccc3[nH]1)C2` [Compound C38, 5-chloroindol-2-yl 7-[(4-fluorophenyl)carbonyl]-2,7-diazaspiro[3.5]non-2-yl ketone], the 50% inhibitory concentration (IC50) was 0.1 to 0.5 µM. Regarding `O=C(c1cc2cc(Br)ccc2[nH]1)N1CC2(CCN(Cc3ccc(Cl)cc3)CC2)C1` [Compound C49, 5-bromoindol-2-yl 7-[(4-chlorophenyl)methyl]-2,7-diazaspiro[3.5]non-2-yl ketone], the half-maximal inhibitory concentration (IC50) lay in the range of 0.5 to 5 µM.
